Measurements reported in patent US10004701B2, “Methods and compositions for treating infection” (UNIVERSITY OF ROCHESTER, priority 2012, dated 2018).
Where a name gives a salt, the structure may show the parent alone. Read-outs that look alike come from different tables or passages of the source.

Tests used:
Test in all cases: AK assay 384-well format, Prestwick library screening
P. aeruginosa = format: cell-based, Pseudomonas aeruginosa; details: 50 μM final drug concentration; for fold induction at 50 µM: Pseudomonas aeruginosa, 3 h
E. cloacae = format: cell-based, Enterobacter cloacae; details: 50 μM final drug concentration; for fold induction at 50 µM: Enterobacter cloacae, 3 h
[1] = test system: S. aureus strain USA300-0114; format: cell-based, Staphylococcus aureus; details: 50 μM final drug concentration; for fold induction at 50 µM: Staphylococcus aureus, USA300, 3 h
[2] = test system: A. baumannii strain 98-37-09; format: cell-based, Acinetobacter baumannii; details: 50 μM final drug concentration; for fold induction at 50 µM: Acinetobacter baumannii, 983709, 3 h
K. pneumoniae = format: cell-based, Klebsiella pneumoniae; details: 50 μM final drug concentration; for fold induction at 50 µM: Klebsiella pneumoniae, 3 h
E. faecium = format: cell-based, Enterococcus faecium; details: 50 μM final drug concentration; for fold induction at 50 µM: Enterococcus faecium, 3 h
E. coli = format: cell-based, Escherichia coli; details: 50 μM final drug concentration; for fold induction at 50 µM: Escherichia coli, 3 h
[3] = planktonic P. aeruginosa, 384-well, cutoff for positive-scoring molecules 3-fold increase, read-out: AK-based Prestwick Library Screening Results: P. aeruginosa (increase in extracellular AK activity)
[4] = planktonic E. cloacae, 384-well, cutoff for positive-scoring molecules 3-fold increase, read-out: AK-based Prestwick Library Screening Results: E. cloacae (increase in extracellular AK activity)
[5] = planktonic S. aureus, 384-well, cutoff for positive-scoring molecules 3-fold increase, read-out: AK-based Prestwick Library Screening Results: S. aureus (increase in extracellular AK activity)
[6] = planktonic A. baumannii, 384-well, cutoff for positive-scoring molecules 3-fold increase, read-out: AK-based Prestwick Library Screening Results: A. baumannii (increase in extracellular AK activity)
[7] = planktonic K. pneumoniae, 384-well, cutoff for positive-scoring molecules 3-fold increase, read-out: AK-based Prestwick Library Screening Results: K. pneumoniae (increase in extracellular AK activity)
[8] = planktonic E. faecium, 384-well, cutoff for positive-scoring molecules 3-fold increase, read-out: AK-based Prestwick Library Screening Results: E. faecium (increase in extracellular AK activity)
[9] = planktonic E. coli, 384-well, cutoff for positive-scoring molecules 3-fold increase, read-out: AK-based Prestwick Library Screening Results: E. coli (increase in extracellular AK activity)
[10] = planktonic, cutoff for positive 3-fold increase, read-out: AK-based Prestwick Library Screening Results, P. aeruginosa (fold increase in extracellular AK activity)
[11] = planktonic, cutoff for positive 3-fold increase, read-out: AK-based Prestwick Library Screening Results, E. cloacae (fold increase in extracellular AK activity)
[12] = planktonic, cutoff for positive 3-fold increase, read-out: AK-based Prestwick Library Screening Results, S. aureus (fold increase in extracellular AK activity)
[13] = planktonic, cutoff for positive 3-fold increase, read-out: AK-based Prestwick Library Screening Results, A. baumannii (fold increase in extracellular AK activity)
[14] = planktonic, cutoff for positive 3-fold increase, read-out: AK-based Prestwick Library Screening Results, K. pneumoniae (fold increase in extracellular AK activity)
[15] = planktonic, cutoff for positive 3-fold increase, read-out: AK-based Prestwick Library Screening Results, E. faecium (fold increase in extracellular AK activity)
[16] = planktonic, cutoff for positive 3-fold increase, read-out: AK-based Prestwick Library Screening Results, E. coli (fold increase in extracellular AK activity)

Compound: CCN1C[C@]2(C)CC[C@H](OC)[C@@]34C1[C@]1(OCO[C@@]15C[C@H](OC)[C@H]1C[C@]3(O)[C@@H]5[C@H]1OC)[C@@H](OC(C)=O)[C@H]24 [Deltaline]
- fold induction at 50 µM (P. aeruginosa; planktonic, […], read-out: AK-based Prestwick Library Screening Results, P. aeruginosa (fold increase in extracellular AK activity)): 0.8
- fold induction at 50 µM (E. cloacae; planktonic, […], read-out: AK-based Prestwick Library Screening Results, E. cloacae (fold increase in extracellular AK activity)): 1.1
- fold induction at 50 µM ([1]; planktonic, […], read-out: AK-based Prestwick Library Screening Results, S. aureus (fold increase in extracellular AK activity)): 0.8
- fold induction at 50 µM ([2]; planktonic, […], read-out: AK-based Prestwick Library Screening Results, A. baumannii (fold increase in extracellular AK activity)): 0.8
- fold induction at 50 µM (K. pneumoniae; planktonic, […], read-out: AK-based Prestwick Library Screening Results, K. pneumoniae (fold increase in extracellular AK activity)): 0.7
- fold induction at 50 µM (E. faecium; planktonic, […], read-out: AK-based Prestwick Library Screening Results, E. faecium (fold increase in extracellular AK activity)): 0.9
- fold induction at 50 µM (E. coli; planktonic, […], read-out: AK-based Prestwick Library Screening Results, E. coli (fold increase in extracellular AK activity)): 0.9

Compound: C1CCN2C[C@@H]3C[C@@H](CN4CCCC[C@@H]34)[C@H]2C1 [Sparteine (−)]
- AK-based Prestwick Library Screening Results, P. aeruginosa (fold increase in extracellular AK activity) (P. aeruginosa; planktonic, […]): 1.0
- AK-based Prestwick Library Screening Results, E. cloacae (fold increase in extracellular AK activity) (E. cloacae; planktonic, […]): 1.7
- AK-based Prestwick Library Screening Results, S. aureus (fold increase in extracellular AK activity) ([1]; planktonic, […]): 1.1
- AK-based Prestwick Library Screening Results, A. baumannii (fold increase in extracellular AK activity) ([2]; planktonic, […]): 1.0
- AK-based Prestwick Library Screening Results, K. pneumoniae (fold increase in extracellular AK activity) (K. pneumoniae; planktonic, […]): 1.0
- AK-based Prestwick Library Screening Results, E. faecium (fold increase in extracellular AK activity) (E. faecium; planktonic, […]): 1.0
- AK-based Prestwick Library Screening Results, E. coli (fold increase in extracellular AK activity) (E. coli; planktonic, […]): 1.3

Compound: COC(=O)Nc1nc2ccc(Sc3ccccc3)cc2[nH]1 [Fenbendazole]
- fold induction at 50 µM (P. aeruginosa; [3]): 0.9
- fold induction at 50 µM (E. cloacae; [4]): 1.3
- fold induction at 50 µM [1, 5]: 0.6
- fold induction at 50 µM [2, 6]: 0.9
- fold induction at 50 µM (K. pneumoniae; [7]): 0.7
- fold induction at 50 µM (E. faecium; [8]): 0.9
- fold induction at 50 µM (E. coli; [9]): 0.9

Compound: CCCN1C[C@H](CSC)C[C@@H]2c3cccc4[nH]cc(c34)C[C@H]21 [Pergolide mesylate]
- fold induction at 50 µM (P. aeruginosa; [3]): 1
- fold induction at 50 µM (E. cloacae; [4]): 1.4
- fold induction at 50 µM [1, 5]: 1
- fold induction at 50 µM [2, 6]: 1.3
- fold induction at 50 µM (K. pneumoniae; [7]): 0.8
- fold induction at 50 µM (E. faecium; [8]): 1
- fold induction at 50 µM (E. coli; [9]): 1.3

Compound: CCCCNC(=O)NS(=O)(=O)c1ccc(C)cc1 [Tolbutamide]
- fold induction at 50 µM (P. aeruginosa; 384-well format, cutoff for positive-scoring molecules 3-fold increase, read-out: AK-based Prestwick Library Screening Results, P. aeruginosa (increase in extracellular AK activity)): 0.9
- fold induction at 50 µM (E. cloacae; 384-well format, cutoff for positive-scoring molecules 3-fold increase, read-out: AK-based Prestwick Library Screening Results, E. cloacae (increase in extracellular AK activity)): 1
- fold induction at 50 µM ([1]; 384-well format, cutoff for positive-scoring molecules 3-fold increase, read-out: AK-based Prestwick Library Screening Results, S. aureus (increase in extracellular AK activity)): 0.7
- fold induction at 50 µM ([2]; 384-well format, cutoff for positive-scoring molecules 3-fold increase, read-out: AK-based Prestwick Library Screening Results, A. baumannii (increase in extracellular AK activity)): 0.9
- fold induction at 50 µM (K. pneumoniae; 384-well format, cutoff for positive-scoring molecules 3-fold increase, read-out: AK-based Prestwick Library Screening Results, K. pneumoniae (increase in extracellular AK activity)): 0.8
- fold induction at 50 µM (E. faecium; 384-well format, cutoff for positive-scoring molecules 3-fold increase, read-out: AK-based Prestwick Library Screening Results, E. faecium (increase in extracellular AK activity)): 1
- fold induction at 50 µM (E. coli; 384-well format, cutoff for positive-scoring molecules 3-fold increase, read-out: AK-based Prestwick Library Screening Results, E. coli (increase in extracellular AK activity)): 0.8

Compound: CN1C(=O)CC(c2ccccc2)C1=O (stereo not shown) [Phensuximide]
- fold induction at 50 µM (P. aeruginosa; planktonic P. aeruginosa, […], read-out: AK-based Prestwick library screening result, P. aeruginosa (fold increase in extracellular AK activity)): 0.7
- fold induction at 50 µM (E. cloacae; planktonic E. cloacae, […], read-out: AK-based Prestwick library screening result, E. cloacae (fold increase in extracellular AK activity)): 1.1
- fold induction at 50 µM ([1]; planktonic S. aureus, […], read-out: AK-based Prestwick library screening result, S. aureus (fold increase in extracellular AK activity)): 0.7
- fold induction at 50 µM ([2]; planktonic A. baumannii, […], read-out: AK-based Prestwick library screening result, A. baumannii (fold increase in extracellular AK activity)): 0.8
- fold induction at 50 µM (K. pneumoniae; planktonic K. pneumoniae, […], read-out: AK-based Prestwick library screening result, K. pneumoniae (fold increase in extracellular AK activity)): 0.8
- fold induction at 50 µM (E. faecium; planktonic E. faecium, […], read-out: AK-based Prestwick library screening result, E. faecium (fold increase in extracellular AK activity)): 0.9
- fold induction at 50 µM (E. coli; planktonic E. coli, […], read-out: AK-based Prestwick library screening result, E. coli (fold increase in extracellular AK activity)): 1

Compound: O=C1O[C@H]([C@@H](O)CO)C(O)=C1O [Ascorbic acid]
- fold induction at 50 µM (P. aeruginosa; [3]): 0.3
- fold induction at 50 µM (E. cloacae; [4]): 0.4
- fold induction at 50 µM [1, 5]: 0.4
- fold induction at 50 µM [2, 6]: 0.4
- fold induction at 50 µM (K. pneumoniae; [7]): 0.5
- fold induction at 50 µM (E. faecium; [8]): 0.9
- fold induction at 50 µM (E. coli; [9]): 0.5

Compound: COc1ccc2[nH]cc(CCNC(C)=O)c2c1 [Melatonin]
- fold induction at 50 µM (P. aeruginosa; [10]): 1.1
- fold induction at 50 µM (E. cloacae; [11]): 1.4
- fold induction at 50 µM [1, 12]: 1.3
- fold induction at 50 µM [2, 13]: 1.2
- fold induction at 50 µM (K. pneumoniae; [14]): 0.8
- fold induction at 50 µM (E. faecium; [15]): 1
- fold induction at 50 µM (E. coli; [16]): 0.9

Compound: COC(=O)Nc1nc2ccc(SC(C)C)cc2[nH]1 [Methiazole]
- AK-based Prestwick library screening result, P. aeruginosa (fold increase in extracellular AK activity) (P. aeruginosa; planktonic P. aeruginosa, positive cutoff 3-fold increase): 0.5
- AK-based Prestwick library screening result, E. cloacae (fold increase in extracellular AK activity) (E. cloacae; planktonic E. cloacae, positive cutoff 3-fold increase): 1.3
- AK-based Prestwick library screening result, S. aureus (fold increase in extracellular AK activity) ([1]; planktonic S. aureus, positive cutoff 3-fold increase): 1.3
- AK-based Prestwick library screening result, A. baumannii (fold increase in extracellular AK activity) ([2]; planktonic A. baumannii, positive cutoff 3-fold increase): 0.5
- AK-based Prestwick library screening result, K. pneumoniae (fold increase in extracellular AK activity) (K. pneumoniae; planktonic K. pneumoniae, positive cutoff 3-fold increase): 0.4
- AK-based Prestwick library screening result, E. faecium (fold increase in extracellular AK activity) (E. faecium; planktonic E. faecium, positive cutoff 3-fold increase): 0.5
- AK-based Prestwick library screening result, E. coli (fold increase in extracellular AK activity) (E. coli; planktonic E. coli, […]): 0.4

Compound: CC1(C)O[C@@H]2C[C@H]3[C@@H]4C[C@H](F)C5=CC(=O)CC[C@]5(C)[C@H]4[C@@H](O)C[C@]3(C)[C@]2(C(=O)CO)O1 [Flurandrenolide]
- fold induction at 50 µM (P. aeruginosa; [10]): 0.4
- fold induction at 50 µM (E. cloacae; [11]): 0.3
- fold induction at 50 µM [1, 12]: 0.4
- fold induction at 50 µM [2, 13]: 0.5
- fold induction at 50 µM (K. pneumoniae; [14]): 0.5
- fold induction at 50 µM (E. faecium; [15]): 0.8
- fold induction at 50 µM (E. coli; [16]): 0.5
